tested on: HBV viral load production from HepAD38 cells; assay: Viral production from HepAD38 cells: viral load in supernatant by qPCR of the HBV core sequence; format: cell-based; settings: 5 days incubation, qPCR of supernatant HBV DNA vs DMSO control, read-out: viral load lowering EC50 (Activity)
Procedure: Assay Measuring Activity of Test Compounds on Viral Production from HepAD38 Cells
HepAD38 cells grown in a T-150 flask (Corning, cat #: 430825) with Growth Medium (DMEM/F12 […] (Hyclone, cat #: SH30023.02), 1× Pen/Strep (Invitrogen, cat #: 15140-122), 10% FBS (Tissue Culture Biologics, cat #: 101), […] G418 (Alfa Aesar, cat #: J62671), 1 μg/mL Tetracycline (Teknova, cat #: T3320)) were detached with 0.25% trypsin-EDTA (Invitrogen, cat #: 25200-056). Tetracycline-free treatment medium (15 mL DMEM/F12 (1:1) 1× Pen/step, with 2% FBS, Tet-system approved (Clontech, cat #: 631106) were then added to mix, transferred into a 50 ml conical tube (Falcon, cat #: 21008-918,) and spun at 1300 rpm for 5 min. Pelleted cells were then re-suspended/washed with 50 mL of 1×DPBS (Invitrogen, cat #: 14190-136) 2 times and 50 mL treatment medium twice. HepAD38 cells were then re-suspended with 10 mL of treatment medium, syringed and counted. Wells of 96-well clear bottom TC plate (Corning, cat #: 3904,) were seeded at 50,000 cells/well in 180 μL of treatment medium, and 20 μL of either 10% DMSO (Sigma, cat #: D4540) as controls or a 10× solution of test compounds in 10% DMSO in treatment media was added for a final compound concentration starting at 10 μM, and plates were incubated in 5% CO2 incubator at 37° C. for 5 days.
Subsequently viral load production was assayed by quantitative PCR (qPCR) of the HBV core sequence. PCR reaction mixture containing forward primers HBV-f 5′-CTGTGCCTTGGGTGGCTIT-3′ (IDT DNA), Reverse primers HBV-r 5′-[…]-3′ (IDT DNA), Fluorescent TaqMan™ Probes HBV-probe 5′-FAM/AGCTCCAAA/ZEN/[…]/3IABkFQ-3′ (IDT DNA), 10 μL/well of PerfeCTa® qPCR ToughMix® (Quanta Biosciences, Cat #: 95114-05K), and 6 μL/well of DEPC water (Alfa Aesar, cat #: J62087) was prepared. Four μL of supernatant was added to 16 μL of the reaction mixture in a qPCR plate (Applied Biosytems, Cat #: 4309849), sealed with a film (Applied Biosystems, Cat #: 4311971), centrifuged for a few seconds, and subsequently run on an Applied Biosystems VIIA7. The PCR mixture was incubated at 45° C. for 5 min, then 95° C. for 10 min, followed by 40 cycles of 10 seconds at 95° C. and 20 seconds at 60° C. Viral load was quantified against known HBV DNA standards by using ViiA™ 7 Software. Viral load in the supernatant from wells with treated cells were compared against viral load in supernatant from DMSO control wells (≥3 per plate). Cell viability assay was performed with CellTiter-Glo Luminescent Cell Viability Assay (Promega, cat #: G7573) with modification. Mixed appropriate amount of CellTiter-Glo (CTG) 1×DPBS in a 1:1 ratio, added 100 uL of the mixture to each well followed completely removal of all supernatant in each well without touching cell surface. Incubated the plate at room temperature for 10 min on an orbital shaker, and then read the plate with a plate reader (TECAN M1000 or Envision). EC50 or CC50 values were calculated through curve-fitting of the four-parameter nonlinear-logistic-regression model (GraphPad Prism or Dotmatics). CC50 values were all >10 μM.

| Compound | EC50 [µM] |
| --- | --- |
| CCN1CCC(Oc2ccc(-c3ncc(CNC(=O)C4CC(C(=O)Nc5ccc(F)c(Cl)c5)N(C)S(=O)(=O)N4)s3)cc2)CC1 (single isomer, unassigned) [Compound 921-ISOMER-B, N3-(3-chloro-4-fluoro-phenyl)-N5-[[2-[4-[(1-ethyl-4-piperidyl)oxy]phenyl]thiazol-5-yl]methyl]-2-methyl-1,1-dioxo-1,2,6-thiadiazinane-3,5-dicarboxamide] | 0.05 to 0.1 |
| CN1C(C(=O)Nc2ccc(F)c(Cl)c2)CC(C(=O)N[C@@H]2CCN(c3ccnc(Cl)c3)C2)NS1(=O)=O (single isomer, unassigned) [1055-R-ISOMER-B] | < 0.05 |
| CN1C(C(=O)Nc2ccc(F)c(Cl)c2)CC(C(=O)NCc2cnc(-c3ccc(F)cc3)s2)NS1(=O)=O (single isomer, unassigned) [Compound 916-ISOMER-B, N3-(3-chloro-4-fluoro-phenyl)-N5-[[2-(4-fluorophenyl)thiazol-5-yl]methyl]-2-methyl-1,1-dioxo-1,2,6-thiadiazinane-3,5-dicarboxamide] | < 0.05 |
| N3-(3-chloro-4-fluoro-phenyl)-2-methyl-1,1-(trifluoromethyl)phenyl]ethyl]-1,2,6-thiadiazinane-3,5-dicarboxamide [493-S-ISOMER-B] | 0.1 to 10 |
| CN1C(C(=O)Nc2ccc(F)c(Cl)c2)CC(C(=O)NCc2cc(-c3ccccc3Cl)no2)NS1(=O)=O (single isomer, unassigned; isomer-b) [1025-ISOMER-B, N3-(3-chloro-4-fluoro-phenyl)-N5-[[3-(2-chlorophenyl)isoxazol-5-yl]methyl]-2-methyl-1,1-dioxo-1,2,6-thiadicarboxamidediazinane-3,5-] | 0.1 to 10 |
| Cc1cn(-c2ccc(F)cc2)nc1CNC(=O)C1CC(C(=O)Nc2ccc(F)c(Cl)c2)N(C)S(=O)(=O)N1 (single isomer, unassigned) [1141-ISOMER-B, N3-(3-chloro-4-fluoro-phenyl)-N5-[[1-(4-fluorophenyl)-4-methyl-pyrazol-3-yl]methyl]-2-methyl-1,1-dioxo-1,2,6-thiadiazinane-3,5-dicarboxamide] | 0.1 to 10 |

same assay, conditions: Hepatitis B virus, HePAD38, 120 h, 5 days incubation, qPCR of supernatant HBV DNA vs DMSO control, read-out: viral load lowering EC50 (Activity)

| Compound | EC50 [µM] |
| --- | --- |
| CN1C(C(=O)Nc2ccc(F)c(Cl)c2)CC(C(=O)NCC2CCCCC2)NS1(=O)=O (single isomer, unassigned) [1160-ISOMER-A, N3-(3-chloro-4-fluoro-phenyl)-N5-(cyclohexylmethyl)-2-methyl-1,1-dioxo-1,2,6-thiadiazinane-3,5-dicarboxamide] | 0.05 to 0.1 |
| CN1C(C(=O)Nc2ccc(F)c(Cl)c2)CC(C(=O)NCc2sc(Cl)nc2C(F)(F)F)NS1(=O)=O (stereo not shown) [Compound 1062] | 0.05 to 0.1 |
| CN1C(C(=O)Nc2ccc(F)c(Cl)c2)CC(C(=O)NCc2ccccc2N2CCCCC2)NS1(=O)=O (stereo not shown) [Compound 906] | 0.1 to 10 |
| C[C@H](NC(=O)C1CC(C(=O)Nc2ccc(F)c(C#N)c2)N(C)S(=O)(=O)N1)c1ccc(F)cc1 (stereo partly shown) [Compound 774] | 0.1 to 10 |
| CN1C(C(=O)Nc2ccc(F)c(Cl)c2)CC(C(=O)N[C@@H](c2ccccc2)c2cnc(-c3ccc(Cl)cc3)s2)NS1(=O)=O (single isomer, unassigned) [1068-ISOMER-D] | 0.1 to 10 |
| CN1C(C(=O)Nc2ccc(F)c(Cl)c2)CC(C(=O)NCc2cc(-c3ccc(F)cc3)nn2C)NS1(=O)=O (single isomer, unassigned) [1143-ISOMER-A, N3-(3-chloro-4-fluoro-phenyl)-N5-[[5-(4-fluorophenyl)-2-methyl-pyrazol-3-yl]methyl]-2-methyl-1,1-dioxo-1,2,6-thiadiazinane-3,5-dicarboxamide] | 0.1 to 10 |
| CN1C(C(=O)Nc2ccc(F)c(Cl)c2)CC(C(=O)NCCc2ccccc2)NS1(=O)=O (stereo not shown) [Compound 732] | 0.1 to 10 |
| CN1C(C(=O)Nc2ccc(F)c(Cl)c2)CC(C(=O)NCc2cc(Br)no2)NS1(=O)=O (stereo not shown) [Compound 980] | 0.1 to 10 |
| CN1C(C(=O)Nc2ccc(F)c(Cl)c2)CC(C(=O)NC2CCN(c3cc(Cl)ccn3)CC2)NS1(=O)=O (single isomer, unassigned) [Compound 974-ISOMER-A, N3-(3-chloro-4-fluoro-phenyl)-N5-[1-(4-chloro-2-pyridyl)-4-piperidyl]-2-methyl-1,1-dioxo-1,2,6-thiadiazinane-3,5-dicarboxamide] | < 0.05 |
| CN1C(C(=O)Nc2ccc(F)c(Cl)c2)CC(C(=O)N[C@H]2CCCc3ccccc32)NS1(=O)=O (stereo partly shown) [Compound 731] | 0.1 to 10 |
| CN1C(C(=O)Nc2ccc(F)c(Cl)c2)CC(C(=O)N[C@H](c2ccccc2)c2cnc(Cl)s2)NS1(=O)=O (single isomer, unassigned) [1066-ISOMER-C] | < 0.05 |
| CN1C(C(=O)Nc2ccc(F)c(Cl)c2)CC(C(=O)NCc2ccccc2F)NS1(=O)=O (stereo not shown) [Compound 819] | < 0.05 |
| Cc1nc(CNC(=O)C2CC(C(=O)Nc3ccc(F)c(Cl)c3)N(C)S(=O)(=O)N2)sc1-c1ccccc1F (stereo not shown) [Compound 1085] | < 0.05 |
| Cc1nc(-c2ccc(OCCN3CCCCC3)cc2)sc1CNC(=O)C1CC(C(=O)Nc2ccc(F)c(Cl)c2)N(C)S(=O)(=O)N1 (single isomer, unassigned) [1087-ISOMER-A, N3-(3-chloro-4-fluoro-phenyl)-2-methyl-N5-[[4-methyl-2-[4-[2-(1-piperidyl)ethoxy]phenyl]thiazol-5-yl]methyl]-1,1-dioxo-1,2,6-thiadiazinane-3,5-dicarboxamide] | < 0.05 |
| Cc1cc(CNC(=O)C2CC(C(=O)Nc3ccc(F)c(C#N)c3)N(C)S(=O)(=O)N2)n(C)n1 (stereo not shown) [Compound 773] | 0.1 to 10 |
| Cc1cn(-c2ccccc2)nc1CNC(=O)C1CC(C(=O)Nc2ccnc(Cl)c2)N(C)S(=O)(=O)N1 (stereo not shown) [Compound 1135] | < 0.05 |
| CN1C(C(=O)Nc2ccc(F)c(Cl)c2)CC(C(=O)NCc2sc(-c3ccccc3F)nc2C(F)(F)F)NS1(=O)=O (single isomer, unassigned) [1082-ISOMER-A, N3-(3-chloro-4-fluoro-phenyl)-N5-[[2-(2-fluorophenyl)-4-(trifluoromethyl)thiazol-5-yl]methyl]-2-methyl-1,1-dioxo-1,2,6-thiadiazinane-3,5-dicarboxamide] | < 0.05 |
| CN1C(C(=O)Nc2ccc(F)c(Cl)c2)CC(C(=O)Nc2ccc3c(c2)OCCO3)NS1(=O)=O (stereo not shown) [Compound 734] | 0.05 to 0.1 |
| CN1C(C(=O)Nc2ccc(F)c(Cl)c2)CC(C(=O)NCc2cnc(-c3ccc(SCCCO)cc3)s2)NS1(=O)=O (stereo not shown) [Compound 923] | 0.05 to 0.1 |
| CN1C(C(=O)Nc2ccc(F)c(Cl)c2)CC(C(=O)NCc2cnc(-c3ccc(C#CCN4CCCCC4)cc3)s2)NS1(=O)=O (stereo not shown) [Compound 946] | 0.05 to 0.1 |
| CN1C(C(=O)Nc2ccc(F)c(Cl)c2)CC(C(=O)NC2CCN(c3ncccn3)CC2)NS1(=O)=O (single isomer, unassigned) [Compound 855-ISOMER-A, N3-(3-chloro-4-fluoro-phenyl)-2-methyl-1,1-dioxo-N5-(1-pyrimidin-2-yl-4-piperidyl)-1,2,6-thiadiazinane-3,5-dicarboxamide] | < 0.05 |
| CN1C(C(=O)Nc2ccc(F)c(Cl)c2)CC(C(=O)N[C@H]2CCN(c3ccnc(Cl)c3)C2)NS1(=O)=O (single isomer, unassigned) [1055-S-ISOMER-A] | 0.1 to 10 |
| Cc1cn(-c2ccccc2)nc1CNC(=O)C1CC(C(=O)Nc2ccc(F)c(C#N)c2)N(C)S(=O)(=O)N1 (stereo not shown) [Compound 1134] | < 0.05 |
| CN1C(C(=O)Nc2ccc(F)c(Cl)c2)CC(C(=O)NC2CCCc3nc(Br)sc32)NS1(=O)=O (stereo not shown) [Compound 978] | < 0.05 |
| CN1C(C(=O)Nc2ccc(F)c(Cl)c2)CC(C(=O)NCc2cnc(-c3ccc(C(F)(F)F)cc3)s2)NS1(=O)=O (stereo not shown) [Compound 915] | 0.1 to 10 |
